Assay results as given in patent publication US20120171274A1, “TRANSDERMAL PATCH” (priority 2006, published 2012).

Legend:
Format in all cases: physicochemical
[1] = Solvency of the active substance in monomer (visual inspection); set-up: key: Excellent: The active substance was not found to have been precipitated in the solution of active substance both immediately after the preparation and after the preservation for 7 days.; Good: The active substance was found to have been precipitated in the solution of active substance immediately after the preparation, but the active substance was not found to have been precipitated in the solution of active substance after the preservation for 7 days.; Poor: The active substance was found to have been precipitated in the solution of active substance both immediately after the preparation and after the preservation for 7 days; settings: 3 parts active substance per 100 parts monomer, 25° C., 7 days
[2] = Residual rate of the active substance in monomer solution (HPLC); settings: for Residual Rate of active substance, Immediately after Preparation: 3 parts per 100 parts monomer; for Residual Rate of active substance, after 7 Days: preserved at 25° C. for 7 days
[3] = Solvency of DMAE in fatty acid ester or additive; settings: 50 parts DMAE in 950 parts, 25° C.
Method: When a crystal of DMAE was precipitated […], and when a crystal of DMAE was not precipitated, the solvency was evaluated to be “poor”.

[4] = Solubility of DMAE at 25° C. (HPLC); settings: g per 100 g of solvent
[5] = monomer: 2-Ethylhexyl Methacrylate

SMILES: COc1ccc(OC)c(C(O)CN)c1 (stereo not shown) [DMAE, 2-amino-1-(2′,5′-dimethoxyphenyl)ethanol]
- Solvency of active substance ([1]; monomer: 1-Vinyl-2-Pyrrolidone): Poor
- Solvency of active substance ([1]; monomer: 2-Ethylhexyl Acrylate): Poor
- Solvency of active substance [1, 5]: Poor
- Solvency of active substance ([1]; monomer: Acrylic Acid): Excellent
- Solvency of active substance ([1]; monomer: Butyl Acrylate): Good
- Solvency of active substance ([1]; monomer: Butyl Methacrylate): Poor
- Solvency of active substance ([1]; monomer: Dodecyl Methacrylate): Poor
- Solvency of active substance ([1]; monomer: Ethyl Acrylate): Excellent
- Residual Rate of active substance, Immediately after Preparation ([2]; monomer: 1-Vinyl-2-Pyrrolidone): 100 % by weight
- Residual Rate of active substance, after 7 Days ([2]; monomer: 1-Vinyl-2-Pyrrolidone): 100 % by weight
- Residual Rate of active substance, Immediately after Preparation ([2]; monomer: 2-Ethylhexyl Acrylate): 39 % by weight
- Residual Rate of active substance, after 7 Days ([2]; monomer: 2-Ethylhexyl Acrylate): 11 % by weight
- Residual Rate of active substance, Immediately after Preparation [2, 5]: 99 % by weight
- Residual Rate of active substance, after 7 Days [2, 5]: 99 % by weight
- Residual Rate of active substance, Immediately after Preparation ([2]; monomer: Acrylic Acid): 99 % by weight
- Residual Rate of active substance, after 7 Days ([2]; monomer: Acrylic Acid): 97 % by weight
- Residual Rate of active substance, Immediately after Preparation ([2]; monomer: Butyl Acrylate): 27 % by weight
- Residual Rate of active substance, Immediately after Preparation ([2]; monomer: Butyl Methacrylate): 98 % by weight
- Residual Rate of active substance, after 7 Days ([2]; monomer: Butyl Methacrylate): 98 % by weight
- Residual Rate of active substance, Immediately after Preparation ([2]; monomer: Dodecyl Methacrylate): 100 % by weight
- Residual Rate of active substance, after 7 Days ([2]; monomer: Dodecyl Methacrylate): 99 % by weight
- Solvency of DMAE ([3]; solvent Butylene Glycol): Poor
- Solvency of DMAE ([3]; solvent Diethyl Sebacate): Excellent
- Solvency of DMAE ([3]; solvent Hexyl Laurate): Excellent
- Solvency of DMAE ([3]; solvent Isopropyl Myristate): Excellent
- Solvency of DMAE ([3]; solvent Isopropyl Palmitate): Excellent
- Solvency of DMAE ([3]; solvent Isostearic Acid): Poor
- Solvency of DMAE ([3]; solvent Liquid Paraffin): Excellent
- Solvency of DMAE ([3]; solvent Medium-chain Triglyceride): Excellent
- Solvency of DMAE ([3]; solvent Monoethanolamine): Poor
- Solvency of DMAE ([3]; solvent Octanediol): Poor
- Solvency of DMAE ([3]; solvent Octyldodecyl Myristate): Excellent
- Solvency of DMAE ([3]; solvent Oleic Acid): Excellent
- Solvency of DMAE ([3]; solvent Oleyl Alcohol): Excellent
- Solvency of DMAE ([3]; solvent Polyoxyethylene (2) Lauryl Ether): Excellent
- Solvency of DMAE ([3]; solvent Propylene Glycol): Poor
- Solvency of DMAE ([3]; solvent Squalane): Excellent
- Solvency of DMAE ([3]; solvent Triacetin): Poor
- Solubility of DMAE ([4]; in Diethyl Sebacate): 0.9 g
- Solubility of DMAE ([4]; in Hexyl Laurate): 0.2 g
- Solubility of DMAE ([4]; in Isopropyl Myristate): 0.2 g
- Solubility of DMAE ([4]; in Isopropyl Palmitate): 0.2 g
- Solubility of DMAE ([4]; in Liquid Paraffin): 0.02 g
- Solubility of DMAE ([4]; in Medium-chain Triglyceride): 0.3 g
- Solubility of DMAE ([4]; in Octyldodecyl Myristate): 0.05 g
- Solubility of DMAE ([4]; in Oleic Acid): 3.7 g
- Solubility of DMAE ([4]; in Oleyl Alcohol): 2.5 g
- Solubility of DMAE ([4]; in Polyoxyethylene (2) Lauryl Ether): 3.7 g
- Solubility of DMAE ([4]; in Squalane): 0.01 g

SMILES: COc1ccc2c(c1)c(CC(=O)O)c(C)n2C(=O)c1ccc(Cl)cc1 [IMT, indomethacin]
- Solvency of active substance ([1]; monomer: 1-Vinyl-2-Pyrrolidone): Excellent
- Solvency of active substance ([1]; monomer: 2-Ethylhexyl Acrylate): Poor
- Solvency of active substance [1, 5]: Poor
- Solvency of active substance ([1]; monomer: Acrylic Acid): Excellent
- Solvency of active substance ([1]; monomer: Butyl Acrylate): Poor
- Solvency of active substance ([1]; monomer: Butyl Methacrylate): Poor
- Solvency of active substance ([1]; monomer: Dodecyl Methacrylate): Poor
- Solvency of active substance ([1]; monomer: Ethyl Acrylate): Poor
- Residual Rate of active substance, Immediately after Preparation ([2]; monomer: 1-Vinyl-2-Pyrrolidone): 100 % by weight
- Residual Rate of active substance, after 7 Days ([2]; monomer: 1-Vinyl-2-Pyrrolidone): 100 % by weight
- Residual Rate of active substance, Immediately after Preparation ([2]; monomer: 2-Ethylhexyl Acrylate): 100 % by weight
- Residual Rate of active substance, after 7 Days ([2]; monomer: 2-Ethylhexyl Acrylate): 100 % by weight
- Residual Rate of active substance, Immediately after Preparation [2, 5]: 100 % by weight
- Residual Rate of active substance, after 7 Days [2, 5]: 100 % by weight
- Residual Rate of active substance, Immediately after Preparation ([2]; monomer: Acrylic Acid): 100 % by weight
- Residual Rate of active substance, after 7 Days ([2]; monomer: Acrylic Acid): 100 % by weight
- Residual Rate of active substance, Immediately after Preparation ([2]; monomer: Butyl Acrylate): 100 % by weight
- Residual Rate of active substance, after 7 Days ([2]; monomer: Butyl Acrylate): 100 % by weight
- Residual Rate of active substance, Immediately after Preparation ([2]; monomer: Butyl Methacrylate): 100 % by weight
- Residual Rate of active substance, after 7 Days ([2]; monomer: Butyl Methacrylate): 99 % by weight
- Residual Rate of active substance, Immediately after Preparation ([2]; monomer: Dodecyl Methacrylate): 100 % by weight
- Residual Rate of active substance, after 7 Days ([2]; monomer: Dodecyl Methacrylate): 100 % by weight
- Residual Rate of active substance, Immediately after Preparation ([2]; monomer: Ethyl Acrylate): 100 % by weight
- Residual Rate of active substance, after 7 Days ([2]; monomer: Ethyl Acrylate): 99 % by weight

SMILES: O=[N+]([O-])O[C@H]1CO[C@H]2[C@@H]1OC[C@H]2O[N+](=O)[O-] [ISDN, isosorbide dinitrate]
- Solvency of active substance ([1]; monomer: 1-Vinyl-2-Pyrrolidone): Excellent
- Solvency of active substance ([1]; monomer: 2-Ethylhexyl Acrylate): Excellent
- Solvency of active substance [1, 5]: Excellent
- Solvency of active substance ([1]; monomer: Acrylic Acid): Excellent
- Solvency of active substance ([1]; monomer: Butyl Acrylate): Excellent
- Solvency of active substance ([1]; monomer: Butyl Methacrylate): Excellent
- Solvency of active substance ([1]; monomer: Dodecyl Methacrylate): Excellent
- Solvency of active substance ([1]; monomer: Ethyl Acrylate): Excellent
- Residual Rate of active substance, Immediately after Preparation ([2]; monomer: 1-Vinyl-2-Pyrrolidone): 100 % by weight
- Residual Rate of active substance, after 7 Days ([2]; monomer: 1-Vinyl-2-Pyrrolidone): 100 % by weight
- Residual Rate of active substance, Immediately after Preparation ([2]; monomer: 2-Ethylhexyl Acrylate): 100 % by weight
- Residual Rate of active substance, after 7 Days ([2]; monomer: 2-Ethylhexyl Acrylate): 100 % by weight
- Residual Rate of active substance, Immediately after Preparation [2, 5]: 100 % by weight
- Residual Rate of active substance, after 7 Days [2, 5]: 99 % by weight
- Residual Rate of active substance, Immediately after Preparation ([2]; monomer: Acrylic Acid): 100 % by weight
- Residual Rate of active substance, after 7 Days ([2]; monomer: Acrylic Acid): 100 % by weight
- Residual Rate of active substance, Immediately after Preparation ([2]; monomer: Butyl Acrylate): 100 % by weight
- Residual Rate of active substance, after 7 Days ([2]; monomer: Butyl Acrylate): 100 % by weight
- Residual Rate of active substance, Immediately after Preparation ([2]; monomer: Butyl Methacrylate): 100 % by weight
- Residual Rate of active substance, after 7 Days ([2]; monomer: Butyl Methacrylate): 100 % by weight
- Residual Rate of active substance, Immediately after Preparation ([2]; monomer: Dodecyl Methacrylate): 100 % by weight
- Residual Rate of active substance, after 7 Days ([2]; monomer: Dodecyl Methacrylate): 100 % by weight
- Residual Rate of active substance, Immediately after Preparation ([2]; monomer: Ethyl Acrylate): 100 % by weight
- Residual Rate of active substance, after 7 Days ([2]; monomer: Ethyl Acrylate): 100 % by weight

SMILES: CC(C)(C)NCC(O)c1ccccc1Cl (stereo not shown) [TB, tulobuterol]
- Solvency of active substance ([1]; monomer: 1-Vinyl-2-Pyrrolidone): Excellent
- Solvency of active substance ([1]; monomer: 2-Ethylhexyl Acrylate): Excellent
- Solvency of active substance [1, 5]: Excellent
- Solvency of active substance ([1]; monomer: Acrylic Acid): Excellent
- Solvency of active substance ([1]; monomer: Butyl Acrylate): Excellent
- Solvency of active substance ([1]; monomer: Butyl Methacrylate): Excellent
- Solvency of active substance ([1]; monomer: Dodecyl Methacrylate): Good
- Solvency of active substance ([1]; monomer: Ethyl Acrylate): Excellent
- Residual Rate of active substance, Immediately after Preparation ([2]; monomer: 1-Vinyl-2-Pyrrolidone): 100 % by weight
- Residual Rate of active substance, after 7 Days ([2]; monomer: 1-Vinyl-2-Pyrrolidone): 100 % by weight
- Residual Rate of active substance, Immediately after Preparation ([2]; monomer: 2-Ethylhexyl Acrylate): 100 % by weight
- Residual Rate of active substance, after 7 Days ([2]; monomer: 2-Ethylhexyl Acrylate): 88 % by weight
- Residual Rate of active substance, Immediately after Preparation [2, 5]: 100 % by weight
- Residual Rate of active substance, after 7 Days [2, 5]: 100 % by weight
- Residual Rate of active substance, Immediately after Preparation ([2]; monomer: Acrylic Acid): 100 % by weight
- Residual Rate of active substance, after 7 Days ([2]; monomer: Acrylic Acid): 96 % by weight
- Residual Rate of active substance, Immediately after Preparation ([2]; monomer: Butyl Acrylate): 100 % by weight
- Residual Rate of active substance, after 7 Days ([2]; monomer: Butyl Acrylate): 81 % by weight
- Residual Rate of active substance, Immediately after Preparation ([2]; monomer: Butyl Methacrylate): 100 % by weight
- Residual Rate of active substance, after 7 Days ([2]; monomer: Butyl Methacrylate): 100 % by weight
- Residual Rate of active substance, Immediately after Preparation ([2]; monomer: Dodecyl Methacrylate): 100 % by weight
- Residual Rate of active substance, after 7 Days ([2]; monomer: Dodecyl Methacrylate): 100 % by weight
- Residual Rate of active substance, Immediately after Preparation ([2]; monomer: Ethyl Acrylate): 100 % by weight
- Residual Rate of active substance, after 7 Days ([2]; monomer: Ethyl Acrylate): 70 % by weight
